The record followed here is ChEMBL document CHEMBL5046300, “Potent Bactericidal Antimycobacterials Targeting the Chaperone ClpC1 Based on the Depsipeptide Natural Products Ecumicin and Ohmyungsamycin A” (2022).

Type in all cases: functional
The test system of assay [1] is Mycobacterium tuberculosis. As to the kind of experiment: Antimycobacterial activity against Mycobacterium tuberculosis mc2 6230 measured after 7 days. To be noted: mc2 6230, 168 h, time 7 day.
Assay [2] has as its system Escherichia coli. As to the kind of experiment: Antibacterial activity against Escherichia coli K-12 MG1655 assessed as bacterial growth inhibition incubated for 18 to 20 hrs by broth microdilution method. The note with it: time 18-20 hrs.
For assay [3], the system named is Klebsiella aerogenes. Kind of assay: Antibacterial activity against Klebsiella aerogenes ATCC 35029 assessed as bacterial growth inhibition incubated for 18 to 20 hrs by broth microdilution method. The note with it: time 18-20 hrs.
Assay [4] relates to Klebsiella pneumoniae. Kind of assay: Antibacterial activity against Klebsiella pneumoniae ATCC 700603 assessed as bacterial growth inhibition incubated for 18 to 20 hrs by broth microdilution method. To be noted: time 18-20 hrs.
Assay [5] relates to Providencia alcalifaciens. Kind of assay: Antibacterial activity against Providencia alcalifaciens ATCC 9886 assessed as bacterial growth inhibition incubated for 18 to 20 hrs by broth microdilution method. The note with it: time 18-20 hrs. A general note: Dilution methods test growth across graded concentrations, often in twofold steps.
Assay [6] concerns Salmonella enterica. Kind of assay: Antibacterial activity against Salmonella enterica ATCC 13311 assessed as bacterial growth inhibition incubated for 18 to 20 hrs by broth microdilution method. The note with it: time 18-20 hrs.
The subject of assay [7] is Shigella sonnei. Kind of assay: Antibacterial activity against Shigella sonnei ATCC 25931 assessed as bacterial growth inhibition incubated for 18 to 20 hrs by broth microdilution method. The note with it: time 18-20 hrs.
Assay [8] concerns Yersinia pseudotuberculosis. As to the kind of experiment: Antibacterial activity against Yersinia pseudotuberculosis ATCC 6904 assessed as bacterial growth inhibition incubated for 18 to 20 hrs by broth microdilution method. The note with it: time 18-20 hrs.
Assay [9] has as its system Acinetobacter baumannii. As to the kind of experiment: Antibacterial activity against Acinetobacter baumannii ATCC 19606 assessed as bacterial growth inhibition incubated for 18 to 20 hrs by broth microdilution method. The note with it: time 18-20 hrs.
Assay [10] concerns Pseudomonas aeruginosa. Kind of assay: Antibacterial activity against Pseudomonas aeruginosa ATCC 27853 assessed as bacterial growth inhibition incubated for 18 to 20 hrs by broth microdilution method. The note with it: time 18-20 hrs.
Assay [11] deals with Vibrio cholerae. Kind of assay: Antibacterial activity against Vibrio cholerae A1552 El Tor assessed as bacterial growth inhibition incubated for 18 to 20 hrs by broth microdilution method. To be noted: time 18-20 hrs.
Assay [12] relates to Brucella anthropi. Kind of assay: Antibacterial activity against Ochrobactrum anthropi ATCC 49687 assessed as bacterial growth inhibition incubated for 18 to 20 hrs by broth microdilution method. To be noted: time 18-20 hrs.
The test system of assay [13] is Bacillus subtilis. As to the kind of experiment: Antibacterial activity against Bacillus subtilis ATCC 6051 assessed as bacterial growth inhibition incubated for 18 to 20 hrs by broth microdilution method. To be noted: time 18-20 hrs.
Assay [14] concerns Listeria ivanovii. As to the kind of experiment: Antibacterial activity against Listeria ivanovii BAA-139 assessed as bacterial growth inhibition incubated for 18 to 20 hrs by broth microdilution method. The note with it: time 18-20 hrs.
Assay [15] relates to Staphylococcus aureus. As to the kind of experiment: Antibacterial activity against methicillin-sensitive Staphylococcus aureus ATCC 29213 assessed as bacterial growth inhibition incubated for 18 to 20 hrs by broth microdilution method. To be noted: time 18-20 hrs.
Assay [16] deals with Staphylococcus aureus. As to the kind of experiment: Antibacterial activity against methicillin-resistant Staphylococcus aureus BAA-44 assessed as bacterial growth inhibition incubated for 18 to 20 hrs by broth microdilution method. To be noted: time 18-20 hrs.
Assay [17] concerns Staphylococcus epidermidis. As to the kind of experiment: Antibacterial activity against Staphylococcus epidermidis ATCC 14990 assessed as bacterial growth inhibition incubated for 18 to 20 hrs by broth microdilution method. The note with it: time 18-20 hrs.
Assay [18] deals with Enterococcus faecium. As to the kind of experiment: Antibacterial activity against Enterococcus faecium ATCC 6569 assessed as bacterial growth inhibition incubated for 18 to 20 hrs by broth microdilution method. The note with it: time 18-20 hrs.
The test system of assay [19] is Enterococcus faecalis. Kind of assay: Antibacterial activity against Enterococcus faecalis ATCC 29212 assessed as bacterial growth inhibition incubated for 18 to 20 hrs by broth microdilution method. The note with it: time 18-20 hrs.
Assay [20] concerns Streptococcus pneumoniae. Kind of assay: Antibacterial activity against Streptococcus pneumoniae ATCC 49619 assessed as bacterial growth inhibition incubated for 18 to 20 hrs by broth microdilution method. To be noted: time 18-20 hrs.

Values after ≈ are worked out from the molar mass of the structure shown. Where a SMILES comes first, the peptide text is derived from it. Bridges are numbered along the chain shown (N, C = ends). [ ]: non-standard residue; d: D form. NMeW = CN[C@@H](Cc1c[nH]c2ccccc12)C(=O)O; Hyp = O=C(O)[C@@H]1C[C@@H](O)CN1; NMeChg = CN[C@H](C(=O)O)C1CCCCC1; NMeT = CN[C@H](C(=O)O)[C@@H](C)O; NMeD = CN[C@@H](CC(=O)O)C(=O)O; NMeL = CN[C@@H](CC(C)C)C(=O)O; NMeNle = CCCC[C@H](NC)C(=O)O; NMeNva = CCC[C@H](NC)C(=O)O; NMeV = CN[C@H](C(=O)O)C(C)C; Pip = O=C(O)[C@@H]1CCCCN1

Usually MIC stands for the least concentration at which growth counts as inhibited. Consider `CCCC[C@H]1C(=O)N(C)[C@@H](Cc2c[nH]c3ccccc23)C(=O)N[C@@H](C(C)C)C(=O)N[C@@H](Cc2ccccc2)C(=O)N[C@@H](C(C)C)C(=O)O[C@H](C)[C@H](NC(=O)[C@@H](NC(=O)[C@@H](NC)C(C)C)C(C)C)C(=O)N(C)[C@@H]([C@@H](C)O)C(=O)N[C@@H](C(C)C)C(=O)N(C)[C@@H](CC(C)C)C(=O)N[C@@H](C(C)C)C(=O)N1C` (H-[NMeV]VT[NMeT]V[NMeL]V[NMeNle][NMeW]VFV; ester 3-C), for which the MIC in assay [1] was 0.5 µM (≈ 0.713 µg/mL).
Turning to `CN[C@@H]1[C@H](O[C@H]2[C@H](O[C@H]3[C@H](O)[C@@H](O)[C@H](N=C(N)N)[C@@H](O)[C@@H]3N=C(N)N)O[C@@H](C)[C@]2(O)C=O)O[C@@H](CO)[C@H](O)[C@H]1O` [STREPTOMYCIN], the MIC was 0.25 µM (≈ 0.145 µg/mL) in [2]; 0.25 µM (≈ 0.145 µg/mL) in [3]; 0.17 µM (≈ 0.0989 µg/mL) in [4]; 9.3 µM (≈ 5.41 µg/mL) in assay [5]; 0.33 µM (≈ 0.192 µg/mL) in [6]; 0.25 µM (≈ 0.145 µg/mL) in [7]. In addition, the MIC in assay [8] amounted to 6.7 µM (≈ 3.9 µg/mL); in assay [9] it was 128 µM (≈ 74.4 µg/mL); in assay [10], 16 µM (≈ 9.31 µg/mL); in [11], 13 µM (≈ 7.56 µg/mL); in assay [12], 128 µM (≈ 74.4 µg/mL); in assay [13], 128 µM (≈ 74.4 µg/mL). The MIC was found to be 4 µM (≈ 2.33 µg/mL) in assay [14]; 2.7 µM (≈ 1.57 µg/mL) in assay [15]; 9.3 µM (≈ 5.41 µg/mL) in assay [16]; 2.7 µM (≈ 1.57 µg/mL) in assay [17]; 16 µM (≈ 9.31 µg/mL) in assay [18]; 128 µM (≈ 74.4 µg/mL) in assay [19]. The MIC in assay [20] was 48 µM (≈ 27.9 µg/mL).
`CCC[C@H]1C(=O)N(C)[C@@H](Cc2c[nH]c3ccccc23)C(=O)N[C@@H](C(C)C)C(=O)N[C@@H](Cc2ccccc2)C(=O)N[C@@H](C(C)C)C(=O)O[C@H](C)[C@H](NC(=O)[C@@H](NC(=O)[C@@H](NC)C(C)C)C(C)C)C(=O)N(C)[C@@H]([C@@H](C)O)C(=O)N[C@@H](C(C)C)C(=O)N(C)[C@@H](CC(C)C)C(=O)N[C@@H](C(C)C)C(=O)N1C` (H-[NMeV]VT[NMeT]V[NMeL]V[NMeNva][NMeW]VFV; ester 3-C): in assay [1], the lowest concentration to inhibit growth (MIC) was 0.5 µM (≈ 0.706 µg/mL).
In assay [1], `CN[C@H](C(=O)N[C@H](C(=O)N[C@@H]1C(=O)N(C)[C@@H]([C@@H](C)O)C(=O)N[C@@H](C(C)C)C(=O)N(C)[C@@H](CC(C)C)C(=O)N[C@@H](C(C)C)C(=O)N2CCCC[C@H]2C(=O)N(C)[C@@H](Cc2c[nH]c3ccccc23)C(=O)N[C@@H](C(C)C)C(=O)N[C@@H](Cc2ccccc2)C(=O)N[C@@H](C(C)C)C(=O)O[C@@H]1C)C(C)C)C(C)C` (H-[NMeV]VT[NMeT]V[NMeL]V[Pip][NMeW]VFV; ester 3-C) displayed an MIC of 4 µM (≈ 5.64 µg/mL).
Compound `CN[C@H](C(=O)N[C@H](C(=O)N[C@@H]1C(=O)N(C)[C@@H]([C@@H](C)O)C(=O)N[C@@H](C(C)C)C(=O)N(C)[C@@H](CC(C)C)C(=O)N[C@@H](C(C)C)C(=O)N(C)[C@@H](C2CCCCC2)C(=O)N(C)[C@@H](Cc2c[nH]c3ccccc23)C(=O)N[C@@H](C(C)C)C(=O)N[C@@H](Cc2ccccc2)C(=O)N[C@@H](C(C)C)C(=O)O[C@@H]1C)C(C)C)C(C)C` (H-[NMeV]VT[NMeT]V[NMeL]V[NMeChg][NMeW]VFV; ester 3-C) had an MIC in [1] of 0.5 µM (≈ 0.726 µg/mL).
For `CN[C@H](C(=O)N[C@H](C(=O)N[C@@H]1C(=O)N(C)[C@@H]([C@@H](C)O)C(=O)N[C@@H](C(C)C)C(=O)N(C)[C@@H](CC(C)C)C(=O)N[C@@H](C(C)C)C(=O)N(C)[C@@H](CC(=O)O)C(=O)N(C)[C@@H](Cc2c[nH]c3ccccc23)C(=O)N[C@@H](C(C)C)C(=O)N[C@@H](Cc2ccccc2)C(=O)N[C@@H](C(C)C)C(=O)O[C@@H]1C)C(C)C)C(C)C` (H-[NMeV]VT[NMeT]V[NMeL]V[NMeD][NMeW]VFV; ester 3-C), it took 32 µM (≈ 45.7 µg/mL) to inhibit growth in assay [1] (MIC).
For `CN[C@H](C(=O)N[C@H](C(=O)N[C@@H]1C(=O)N(C)[C@@H]([C@@H](C)O)C(=O)N[C@@H](C(C)C)C(=O)N(C)[C@@H](CC(C)C)C(=O)N[C@@H](C(C)C)C(=O)N2C[C@H](O)C[C@H]2C(=O)N(C)[C@@H](Cc2c[nH]c3ccccc23)C(=O)N[C@@H](C(C)C)C(=O)N[C@@H](Cc2ccccc2)C(=O)N[C@@H](C(C)C)C(=O)O[C@@H]1C)C(C)C)C(C)C` (H-[NMeV]VT[NMeT]V[NMeL]V[Hyp][NMeW]VFV; ester 3-C), in [1], the MIC stood at 8 µM (≈ 11.3 µg/mL).
